Test results as given in patent US20250129045A1, “SMALL MOLECULE PIM AND MTOR KINASE INHIBITOR AND METHODS OF USE THEREOF” (Arizona Board of Regents on Behalf of the University of …, priority 2022, published 2025).
Entries after “also recorded” stand apart in the source; their conditions may differ.

What was measured:
Pim1 [1] = target: T1, Pim1 (Homo sapiens, UniProt P11309); assay: Surface plasmon resonance (SPR) binding of VBT5445 to Pim1; conditions: 500 nM PIM447 vs DMSO
Experimental: (§1) FIGS. 7A-7I show inhibition of VBT5445 (VBT) on Pim1 and EDC3 binding and phosphorylation. FIG. 7A: In vitro co-precipitation (Co-PPT) assay was performed with recombinant EDC3 and biotinylated Pim1 using Streptavidin beads with increasing concentrations of the Pim inhibitor VBT5445 (VBT). FIG. 7B: Kinase assays were performed with recombinant EDC3 and Pim1 with increasing concentrations of VBT. FIG. 7C: Cell lysates from PC3-LN4 cells cultured with DMSO, 10 μM VBT, 3 μM AZD5363 (AKTi) and the combination for 6 hrs were subjected to western blotting (WB). […] WBs were performed using the indicated antibodies. FIG. 7E: PC3-LN4 cells were seeded into 48 well plate and incubated with either DMSO, VBT, AZD5363 or the combination, for 4.5 days. A real-time imaging system (IncuCyte™) was used to measure cell proliferation using a non-label cell monolayer confluence approach. FIG. 7F-7H: GFP image in PC3 LN4 GFP EDC3 expressing cells treated with PIMi: VBT (5 μM) and VBT (5 μM)+AZD5363 (3 μM) for 6 hrs.
A virtual screening effort was mounted to find chemicals that interact outside of ATP binding site of Pim screening over 100,000 compounds followed by testing the top 303 by Surface Plasmon Resonance (SPR). Synthesis of the most likely candidate was achieved by the Arizona Center for Drug Discovery at the University of Arizona. […]

Pim1 [2] = target: T1, Pim1; assay: Kinase assay with purified Pim1 and EDC3 (EDC3 S161 phosphorylation); assay type: biochemical; conditions: concentration of 1 μM
Experimental: as §1
Computer screening followed by surface plasmon resonance (SPR) yielded a lead compound VBT-5445 that can interact with the Pim-1 protein kinase. Enhancer of mRNA Decapping 3 (EDC3) is a substrate of the Pim kinase that regulates the decapping of messenger RNA, and its activity is modulated by Pim mediated phosphorylation. […]

Pim1 and EDC3 binding = Pim1 and EDC3 binding (Homo sapiens, UniProt P11309); assay: In vitro co-precipitation / co-immunoprecipitation of EDC3 with Pim1; conditions: VBT-5445 at concentrations higher than 1 μM
Experimental: as §1

PC3-LN4 cells [3] = assay: P-body (PB) number in PC3-LN4 GFP-EDC3 cells; assay type: cell-based, human; conditions: 6 h
Experimental: as §1
To measure PB numbers, PC3-LN4 PCa cells containing a CRISPR/Cas total knock-out of EDC3 were stably transduced with GFP-EDC3. When localized in PBs, GFP spots could be quantified. PBs were quantified at the University of Colorado Center for Drug Discovery using an Opera Phenix Plus high content screening system (PerkinElmer) Perkin Elmer G3 robotic system after drug treatment. Assays were carried out in quadruplicate and the mean number of PBs per cell and cell area calculated. An example of this assay is shown using […] buffered saline (HBSS) to induce PB formation.
Immunofluorescence: Immunofluorescence (IF) staining was performed on PC3-LN4 cells stably expressing EDC3-GFP. 1×10^4 cells were seeded in each chamber of an 8 well chamber slide (Nunc Lab-Tek II Chamber Slide System, Life Technologies) and cultured for 48 h. After attaching to the chamber slides cells were treated with DMSO, VB-5445 ([…]), AZD5363 (3 μM), or the combination for 6 h. Cells were then fixed with 4% paraformaldehyde in PBS for 15 min and subsequently permeabilized with 0.2% Triton X-100 in PBS. Cells were stained with diluted DAPI (1:4000) in 1% nor-mal goat serum in PBS. Cells were mounted with Prolong Gold Antifade mounting medium (Molecular Probes).

PC3-LN4 cells [4] = assay: Cell growth assay (IncuCyte) in PC3-LN4 prostate cancer cells; assay type: cell-based, human; conditions: for prostate cancer (PC3-LN4) growth, in combination with AKT/PI3K inhibitor: combination with AZD5363 or BKM120
Experimental: as §1
(§2) Cell growth assay: Tumor cells were seeded into 48 well plates (1000 cells/well) and treated with varied agents. The Incucyte real-time imaging system (Incucyte) was used to measure cell proliferation using a non-label cell monolayer confluence approach. The images were captured every 12 h. Graphs were generated using an integrated confluence metric as an alternative for cell numbers. At the end of the study cell growth was visualized by crystal violet staining.

[5] = test system: T-cell acute lymphoblastic leukemia cell line DU528; assay: Cell viability (XTT) assay in T-ALL cells; assay type: cell-based; conditions: 72 h
Experimental: Cell viability (XTT) assay: T-ALL cells were seeded into 96 well plates at a density of 20,000 cells per well and treated with VBT-5445 for 72 h, using DMSO as control. Cell viability was measured using XTT cell proliferation assay (Trevigen Cat #4891-025-K) following the manufacturer's protocol. Briefly, XTT reagent was added to cell culture after the treatment and incubated for 4 h at 37° C. and 5% CO2. The absorbance of the colored formazan product was measured at 450 nm.

PC3-LN4 cells [6] = assay: Western blotting of PC3-LN4 cell lysates; assay type: cell-based, human
Experimental: as §1, with “FIG.” for “FIGS. 7A-7I show inhibition of VBT5445 (VBT) on Pim1 and EDC3 binding and phosphorylation. FIG.”
Extracts were subjected to Western blotting with the indicated antibodies.
(§3) Immunoblotting: Western blots were performed as described previously. Briefly, protein lysates (30 μg) were subjected to SDS-PAGE and transferred to nitrocellulose membranes. After blocking with 5% milk in TBST buffer for 30 min at room temperature, the membranes were incubated overnight at 4° C. with the Indicated primary antibody in 3% BSA in TBST. Specific proteins were detected with the corresponding HRP conjugated secondary antibody using enhanced chemiluminescence (GE Lifesciences, Piscataway, NJ).

[7] = Tolerability by gavage in mice; assay type: in vivo; conditions: 30 mg/kg by gavage in combination with AZD5363 40 mg/kg
Text: Maximum Tolerated Dose and Side Effect Profile. […] To obtain the maximum tolerated dose (MTD), the dose will be increased by 50% over the previous one at each ensuing treatment consisting of 3 mice given daily for 5 days. Mice will be observed for fur ruffling and behavior changes. Blood will be drawn, and the WBC count and blood chemistry will be determined to evaluate bone marrow, liver, and kidney toxicity. Together with pharmacokinetic profiling, this analysis will help determine the best dose and frequency of administration for this molecule.

[8] = test system: PANC1 pancreatic cancer cells; assay: Growth inhibition of PANC1 pancreatic cancer cells; assay type: cell-based
Experimental: as §2
(§4) Because of ease of growth, PANC1 pancreatic cancer cells were used to test the activity of derivatives of VBT-5445 (FIG. 14). […] Using a doxycycline inducible Pim kinase vector in these tumor cells, this inhibition of phosphorylation was proportional to the level of Pim in these cells (FIG. 9). […] Inhibition of mTORC1 is known to stimulate the feedback activation of mTORC2 leading to AKT phosphorylation. […] The effect of these compounds on mTORC1 and 2 was still evident in PC3-LN4 cells that contained a knockout (KO) using CRISPR/CAS9 of either TSC2 or DEPDC5 (FIG. 12, lanes 4-9). TSC2 KO activated the Rheb GTPase while DEPDC5 KO activated the RAG GTPase both of which stimulate mTORC1 activity. Thus, GRG compounds were capable of inhibiting mTORC1 activity even when this kinase was highly activated.

mTORC = assay: Phosphorylation of mTORC substrates in PANC1 cells (Western blot); assay type: cell-based; conditions: overnight incubation, FIG. 19
Experimental: as §3, §4

Acetyl CoA carboxylase = Acetyl CoA carboxylase phosphorylation in LNCaP cells (Western blot); assay type: cell-based; conditions: LNCaP prostate cancer cell line
Experimental: LNCaP cells were treated in a 6 well plate with GRG-1-35 for the indicated times. Cells were scrapped and protein extracts subjected to SDS-PAGE and Western blotted with the antibodies shown.

T1 sequence (P11309 whole entry): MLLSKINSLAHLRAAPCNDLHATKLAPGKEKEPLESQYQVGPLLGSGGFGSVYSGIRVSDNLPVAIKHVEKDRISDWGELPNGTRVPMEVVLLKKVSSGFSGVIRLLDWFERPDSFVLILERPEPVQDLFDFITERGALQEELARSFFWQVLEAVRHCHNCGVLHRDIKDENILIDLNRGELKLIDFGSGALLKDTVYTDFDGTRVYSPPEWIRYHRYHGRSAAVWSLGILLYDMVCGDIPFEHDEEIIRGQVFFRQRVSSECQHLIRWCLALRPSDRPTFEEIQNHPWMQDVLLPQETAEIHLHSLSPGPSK
Pim1 and EDC3 binding, sequence (P11309 whole entry): as above

O=c1c(CNCc2cccnc2)cc2ccc(Cl)cc2n1CCOc1ccccc1 [VBT5445]
increase of binding to Pim1 when PIM447 was added and bound to the ATP site (Pim1 [1]): 3 fold
inhibition of EDC3 serine 161 phosphorylation by Pim1 (Pim1 [2]): inhibited EDC3 phosphorylation
co-immunoprecipitation of EDC3 with Pim (Pim1 and EDC3 binding): blocked the ability of Pim1 to coimmunoprecipitate with EDC3
number of P-bodies, with AKT inhibitor AZD5363 added (PC3-LN4 cells [3]; combination with AZD5363 (3 μM)): further increased these numbers; also recorded: further increase P-body formation
number of P-bodies (PC3-LN4 cells [3]; compound alone): increased PB numbers; also recorded: induces increased numbers of P-bodies
prostate cancer (PC3-LN4) growth, in combination with AKT/PI3K inhibitor (PC3-LN4 cells [4]): more active in inhibiting cancer growth
prostate cancer (PC3-LN4) growth, in combination with AKT/PI3K inhibitor (PC3-LN4 cells [4]; listed as VBT): markedly inhibits the growth
growth in culture of PC3-LN4 cells (PC3-LN4 cells [4]; compound alone): markedly inhibits the growth
growth of T-acute lymphoblastic leukemia cells [5]: inhibited the growth
ITGB1 protein level, combination with AZD5363 (AKTi) (PC3-LN4 cells [6]): reduced
cellular level of Pim kinases (PC3-LN4 cells [6]): decreases the level of all Pim kinases
cellular level of c-Myc protein (PC3-LN4 cells [6]): decrease
mTORC1 activity: phosphorylation of the S6 protein (PC3-LN4 cells [6]): blocked mTORC1 activity
weight loss or behavior changes [7]: without any weight loss or behavior changes

O=c1c(CNCc2cc(Cl)ccn2)cc2ccc(Cl)cc2n1CCOc1ccccc1 [GRG-1-35]
growth inhibitory activity against PANC1 pancreatic cancer cells [8]: most active
block of phosphorylation of mTORC substrates (AKT, 4E-BP1, S6) (mTORC): block the phosphorylation of mTORC substrates
phosphorylation of acetyl CoA carboxylase (Acetyl CoA carboxylase): Induction; also recorded: increased the phosphorylation of acetyl CoA carboxylase
